Results: patent US20230033360A1, “COMPOUNDS AS CD73 INHIBITORS” (BioArdis LLC, priority 2019, published 2023)

Target: T1, Recombinant Human 5′-Nucleotidase (CD73) (Homo sapiens, UniProt P21589)
T1 construct: CHO derived CD73 (Trp27-Lys547), with a C-terminal 6-His tag; 6-His (C); purchased R&D 5795-EN; host or cells: CHO
T1 sequence (P21589 27-547): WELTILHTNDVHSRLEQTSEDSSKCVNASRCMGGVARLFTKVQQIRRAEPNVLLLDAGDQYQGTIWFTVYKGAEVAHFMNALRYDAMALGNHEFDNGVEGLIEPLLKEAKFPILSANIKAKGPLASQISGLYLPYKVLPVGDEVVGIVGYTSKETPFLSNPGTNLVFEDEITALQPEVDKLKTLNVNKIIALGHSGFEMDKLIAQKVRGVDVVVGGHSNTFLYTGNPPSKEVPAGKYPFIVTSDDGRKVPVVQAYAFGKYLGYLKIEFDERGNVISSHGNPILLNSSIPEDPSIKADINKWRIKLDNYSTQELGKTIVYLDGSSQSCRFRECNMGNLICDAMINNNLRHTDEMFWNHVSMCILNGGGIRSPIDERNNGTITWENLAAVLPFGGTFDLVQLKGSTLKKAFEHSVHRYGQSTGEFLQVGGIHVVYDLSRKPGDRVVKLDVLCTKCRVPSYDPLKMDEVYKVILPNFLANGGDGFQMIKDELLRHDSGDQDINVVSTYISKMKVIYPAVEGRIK
Test: CD73 Enzyme Assay (PiColorLock inorganic phosphate detection, AMP substrate)
Format: biochemical
Conditions: human CD73 0.5 nM, AMP 30 μM, 20 min at 37° C., absorbance 635 nm; read-out: Potency (IC50)
Text: Soluble recombinant CD73 catalyzes the conversion of adenosine monophosphate (AMP) to adenosine and inorganic phosphate. The phosphate detection reagent, PiColorLock™ (Innova Bioscience, Cat #303-0125) is based on the change in absorbance of the dye malachite green in the presence of inorganic phosphate (Pi) and this property can be exploited to measure any enzyme that generates Pi. Recombinant Human 5′-Nucleotidase (CD73) (R&D #5795-EN, CHO derived CD73 (Trp27-Lys547), with a C-terminal 6-His tag) was used in the enzymatic assay. This assay, run in a 384-well plate format (Corning® NBS™ 384 well plates, Cat #3640), is a generic method for measuring inorganic phosphate. The basic assay procedure involves two steps: 1) Enzyme reaction: The CD73 enzyme (R&D #5795-EN) is incubated in the presence or absence of compounds. AMP (sigma, cat #01930) is added to start the […] reaction. 2) Detection step: Gold mix is added to the assay system, then stabilizers are added. After incubation the absorbance of the solution is read at OD 635 nm. The recorded OD signal is proportional to the enzyme activity.
Briefly, 25 μl human CD73 (0.5 nM final concentration) in the enzymatic buffer solutions (20 mM Tris, 25 mM NaCl, 1 mM MgCl2, pH 7.5, 0.005% Tween-20) were mixed with various concentrations of the test compound (dissolved in 100% DMSO). These solutions were incubated for 15 min at 25° C., and subsequently 25 μl AMP (30 μM final concentration) was added to start the reaction. The final reaction mixture of enzyme-substrate-compound was incubated for 20 min at 37° C. Meanwhile ‘Gold mix’ was prepared shortly before use by adding 1/100 vol. of accelerator to the PiColorLock™ Gold reagent. 12 μL/well of the ‘Gold mix’ was added to assay plate containing 50 μL enzyme reaction buffer and incubated at 25° C. for 5 min. 5 μL/well stabilizer was added to the assay plate and incubated at 25° C. for 30 min. The absorbance of the well solutions was measured at 635 nm on a Spark 10M instrument (TECAN).
The percent (%) inhibition at each concentration of a compound was calculated relative to the […] value in the Max and Min control wells contained within each assay plate. The Max control wells contained enzyme and substrate as 0% inhibition, and the Min control wells only contained substrate without enzyme as 100% inhibition. The concentrations and percent inhibition values for a test compound are plotted and the concentration of the compound required to achieve 50% inhibition (IC50) was determined with a four-parameter logistic dose response equation.

Row | Compound | IC50 [nM]
1 | O=P(O)(O)CP(=O)(O)OC[C@H]1OC(c2cnc3c(NC4CCC(F)(F)C4)cc(Cl)nn23)[C@H](O)[C@@H]1O (stereo partly drawn) [Example S13, (((((2R,3S,4R)-5-(6-chloro-8-((3,3-difluorocyclopentyl)amino)imidazo[1,2-b]pyridazin-3-yl)-3,4-dihydroxytetrahydrofuran-2-yl)methoxy)(hydroxy)phosphoryl)methyl)phosphonic acid] | 1 to 9.9
2 | O=P(O)(O)CP(=O)(O)OC[C@H]1OC(c2cnc3c(NCc4ccccc4)cc(Cl)nn23)[C@H](O)[C@@H]1O (stereo partly drawn) [Example S14, (((((2R,3S,4R)-5-(8-(benzylamino)-6-chloroimidazo[1,2-b]pyridazin-3-yl)-3,4-dihydroxytetrahydrofuran-2-yl)methoxy)(hydroxy)phosphoryl)methyl)phosphonic acid] | 1 to 9.9
3 | O=P(O)(O)CP(=O)(O)OC[C@H]1OC(c2cnc3c(NCc4ccccc4Cl)cc(Cl)nn23)[C@H](O)[C@@H]1O (stereo partly drawn) [Example S15, (((((2R,3S,4R)-5-(6-chloro-8-((2-chlorobenzyl)amino)imidazo[1,2-b]pyridazin-3-yl)-3,4-dihydroxytetrahydrofuran-2-yl)methoxy)(hydroxy)phosphoryl)methyl)phosphonic acid] | 1 to 9.9
4 | C[C@H](Nc1cc(Cl)nn2c(C3O[C@H](COP(=O)(O)CP(=O)(O)O)[C@@H](O)[C@H]3O)cnc12)c1ccc(F)cc1 (stereo partly drawn) [Example S17, (((((2R,3S,4R)-5-(6-chloro-8-(((S)-1-(4-fluorophenyl)ethyl)amino)imidazo[1,2-b]pyridazin-3-yl)-3,4-dihydroxytetrahydrofuran-2-yl)methoxy)(hydroxy)phosphoryl)methyl)phosphonic acid] | < 1
5 | C[C@H](Nc1cc(Cl)nn2c(C3O[C@H](COP(=O)(O)CP(=O)(O)O)[C@@H](O)[C@@H]3F)cnc12)c1ccccc1F (stereo partly drawn) [Example S19, (((((2R,3R,4S)-5-(6-chloro-8-(((S)-1-(2-fluorophenyl)ethyl)amino)imidazo[1,2-b]pyridazin-3-yl)-4-fluoro-3-hydroxytetrahydrofuran-2-yl)methoxy)(hydroxy)phosphoryl)methyl)phosphonic acid] | 10 to 99
6 | O=P(O)(O)CP(=O)(O)OC[C@H]1OC(c2cnc3c(N4CCC(F)(F)C4)cc(Cl)nn23)[C@@H](F)[C@@H]1O (stereo partly drawn) [Example S22, (((((2R,3R,4S)-5-(6-chloro-8-(3,3-difluoropyrrolidin-1-yl)imidazo[1,2-b]pyridazin-3-yl)-4-fluoro-3-hydroxytetrahydrofuran-2-yl)methoxy)(hydroxy)phosphoryl)methyl)phosphonic acid] | 10 to 99
7 | O=P(O)(O)CP(=O)(O)OC[C@H]1OC(c2cnc3c(N4CC5CC5C4)cc(Cl)nn23)[C@H](O)[C@@H]1O (stereo partly drawn) [Example S23, (((((2R,3S,4R)-5-(8-(3-azabicyclo[3.1.0]hexan-3-yl)-6-chloroimidazo[1,2-b]pyridazin-3-yl)-3,4-dihydroxytetrahydrofuran-2-yl)methoxy)(hydroxy)phosphoryl)methyl)phosphonic acid] | < 1
8 | O=P(O)(O)CP(=O)(O)OC[C@H]1OC(c2cnc3c(N4CCc5ccccc54)cc(Cl)nn23)[C@H](O)[C@@H]1O (stereo partly drawn) [Example S25, (((((2R,3S,4R)-5-(6-chloro-8-(indolin-1-yl)imidazo[1,2-b]pyridazin-3-yl)-3,4-dihydroxytetrahydrofuran-2-yl)methoxy)(hydroxy)phosphoryl)methyl)phosphonic acid] | 1 to 9.9
9 | O=P(O)(O)CP(=O)(O)OC[C@H]1OC(c2cnc3c(N4CCCCC4)cc(Cl)nn23)[C@H](O)[C@@H]1O (stereo partly drawn) [Example S26, (((((2R,3S,4R)-5-(6-chloro-8-(piperidin-1-yl)imidazo[1,2-b]pyridazin-3-yl)-3,4-dihydroxytetrahydrofuran-2-yl)methoxy)(hydroxy)phosphoryl)methyl)phosphonic acid] | 1 to 9.9
10 | O=P(O)(O)CP(=O)(O)OC[C@H]1OC(c2cnc3c(N4CCCC[C@H]4c4ccccc4)cc(Cl)nn23)[C@H](O)[C@@H]1O (stereo partly drawn) [Example S27, (((((2R,3S,4R)-5-(6-chloro-8-((S)-2-phenylpiperidin-1-yl)imidazo[1,2-b]pyridazin-3-yl)-3,4-dihydroxytetrahydrofuran-2-yl)methoxy)(hydroxy)phosphoryl)methyl)phosphonic acid] | 1 to 9.9

Other lines, results leading:

Row | IC50 [nM] | Compound
11 | < 1 | O=P(O)(O)CP(=O)(O)OC[C@H]1O[C@@H](c2csc3c(NC4CCCC4)nc(Cl)nc23)[C@H](O)[C@@H]1O [Example S10, (((((2R,3S,4R,5S)-5-(2-chloro-4-(cyclopentylamino)thieno[3,2-d]pyrimidin-7-yl)-3,4-dihydroxytetrahydrofuran-2-yl)methoxy)(hydroxy)phosphoryl)methyl)phosphonic acid]
12 | 10 to 99 | O=P(O)(O)CP(=O)(O)OC[C@H]1O[C@H](c2csc3c(NC4CCCC4)nc(Cl)nc23)[C@H](O)[C@@H]1O [Example S11]
13 | 1 to 9.9 | O=P(O)(O)CP(=O)(O)OC[C@H]1OC(c2cnc3c(NC4CCOC4)cc(Cl)nn23)[C@H](O)[C@@H]1O (stereo partly drawn) [Example S12, (((((2R,3S,4R)-5-(6-chloro-8-((tetrahydrofuran-3-yl)amino)imidazo[1,2-b]pyridazin-3-yl)-3,4-dihydroxytetrahydrofuran-2-yl)methoxy)(hydroxy)phosphoryl)methyl)phosphonic acid]
14 | 1 to 9.9 | C[C@H](Nc1cc(Cl)nn2c(C3O[C@H](COP(=O)(O)CP(=O)(O)O)[C@@H](O)[C@H]3O)cnc12)c1cccc(F)c1 (stereo partly drawn) [Example S16, (((((2R,3S,4R)-5-(6-chloro-8-(((S)-1-(3-fluorophenyl)ethyl)amino)imidazo[1,2-b]pyridazin-3-yl)-3,4-dihydroxytetrahydrofuran-2-yl)methoxy)(hydroxy)phosphoryl)methyl)phosphonic acid]
15 | 1 to 9.9 | C[C@H](Nc1cc(Cl)nn2c(C3O[C@H](COP(=O)(O)CP(=O)(O)O)[C@@H](O)[C@H]3O)cnc12)c1ccccc1 (stereo partly drawn) [Example S18, (((((2R,3S,4R)-5-(6-chloro-8-(((S)-1-phenylethyl)amino)imidazo[1,2-b]pyridazin-3-yl)-3,4-dihydroxytetrahydrofuran-2-yl)methoxy)(hydroxy)phosphoryl)methyl)phosphonic acid]
16 | 1 to 9.9 | O=P(O)(O)CP(=O)(O)OC[C@H]1OC(c2cnc3c(N4CCCC4)cc(Cl)nn23)[C@H](O)[C@@H]1O (stereo partly drawn) [Example S20, (((((2R,3S,4R)-5-(6-chloro-8-(pyrrolidin-1-yl)imidazo[1,2-b]pyridazin-3-yl)-3,4-dihydroxytetrahydrofuran-2-yl)methoxy)(hydroxy)phosphoryl)methyl)phosphonic acid]
17 | 10 to 99 | O=P(O)(O)CP(=O)(O)OC[C@H]1OC(c2cnc3c(N4CCCC4)cc(Cl)nn23)[C@@H](F)[C@@H]1O (stereo partly drawn) [Example S21, (((((2R,3R,4S)-5-(6-chloro-8-(pyrrolidin-1-yl)imidazo[1,2-b]pyridazin-3-yl)-4-fluoro-3-hydroxytetrahydrofuran-2-yl)methoxy)(hydroxy)phosphoryl)methyl)phosphonic acid]
18 | 1 to 9.9 | O=P(O)(O)CP(=O)(O)OC[C@H]1OC(c2cnc3c(N4CC5CCCC5C4)cc(Cl)nn23)[C@@H](F)[C@@H]1O (stereo partly drawn) [Example S24, (((((2R,3R,4S)-5-(6-chloro-8-(hexahydrocyclopenta[c]pyrrol-2 (1H)-yl)imidazo[1,2-b]pyridazin-3-yl)-4-fluoro-3-hydroxytetrahydrofuran-2-yl)methoxy)(hydroxy)phosphoryl)methyl)phosphonic acid]
